Reference: publication PMC11995724, “Antibiotic target discovery by integrated phenotypic and activity-based profiling of electrophilic fragments” (Cell chemical biology, 2025)

Experiment: in vitro
Settings: human, hek293t cells

| Structure (SMILES) | viability at 48 h, 25 µM |
| --- | --- |
| C=CC(=O)NC1(Cc2nnc3ccccn23)CCCCC1 [2-L03, N-[1-({[1,2,4]triazolo[4,3-a]pyridin-3-yl}methyl)cyclohexyl]prop-2-enamide] | 76.2% |
| C=CC(=O)N(C)CC(=O)N1CCN(c2ccccc2[N+](=O)[O-])CC1 [2-L04, N-methyl-N-{2-[4-(2-nitrophenyl)piperazin-1-yl]-2-oxoethyl}prop-2-enamide] | 83.6% |
| C=CC(=O)NCCc1nnc(C(C)C)s1 [2-L05, N-{2-[5-(propan-2-yl)-1,3,4-thiadiazol-2-yl]ethyl}prop-2-enamide] | 61.9% |
| C=CC(=O)N1CCC(C(=O)N2CCN(c3ccnc(C)n3)CC2)CC1 [2-L06, 1-{4-[4-(2-methylpyrimidin-4-yl)piperazine-1-carbonyl]piperidin-1-yl}prop-2-en-1-one] | 88.5% |
| C=CC(=O)NCc1noc2c1CC(C)(C)CC2 [2-L07, N-[(5,5-dimethyl-4,5,6,7-tetrahydro-1,2-benzoxazol-3-yl)methyl]prop-2-enamide] | 60% |
| C=CC(=O)N1CCC(C(=O)N(CC)Cc2occc2C)CC1 [2-L08, N-ethyl-N-[(3-methylfuran-2-yl)methyl]-1-(prop-2-enoyl)piperidine-4-carboxamide] | 88.8% |
| C=CC(=O)NCCn1cc(C2CCOC2)cn1 (stereo not drawn) [2-L09, N-{2-[4-(oxolan-3-yl)-1H-pyrazol-1-yl]ethyl}prop-2-enamide] | 53.7% |
| C=CC(=O)N(CC)CC(=O)N1CCC(c2nncn2C)CC1 [2-L10, N-ethyl-N-{2-[4-(4-methyl-4H-1,2,4-triazol-3-yl)piperidin-1-yl]-2-oxoethyl}prop-2-enamide] | 72.6% |
| C=CC(=O)NCCNS(=O)(=O)c1cc(C)ccc1F [2-L11, N-[2-(2-fluoro-5-methylbenzenesulfonamido)ethyl]prop-2-enamide] | 39.4% |
| C=CC(=O)N1CCC(C(=O)N2CCCC2C2OCCO2)CC1 (stereo not drawn) [2-L12, 1-{4-[2-(1,3-dioxolan-2-yl)pyrrolidine-1-carbonyl]piperidin-1-yl}prop-2-en-1-one] | 48.7% |
| C=CC(=O)NC1CCCN(Cc2ccccc2)C1=O (stereo not drawn) [2-L13, N-(1-benzyl-2-oxopiperidin-3-yl)prop-2-enamide] | 60.1% |
| C=CC(=O)N1CCC(C(=O)N2CCOC(c3cccc(F)c3)C2)CC1 (stereo not drawn) [2-L14, 1-{4-[2-(3-fluorophenyl)morpholine-4-carbonyl]piperidin-1-yl}prop-2-en-1-one] | 102% |
| C=CC(=O)NCc1ccc2oc(=O)n(C)c2c1 [2-L15, N-[(3-methyl-2-oxo-2,3-dihydro-1,3-benzoxazol-5-yl)methyl]prop-2-enamide] | 55% |
| C=CC(=O)N1CCC(C(=O)N2CCCC(C3OCCO3)C2)CC1 (stereo not drawn) [2-L16, 1-{4-[3-(1,3-dioxolan-2-yl)piperidine-1-carbonyl]piperidin-1-yl}prop-2-en-1-one] | 58% |
| C=CC(=O)NCc1ccccc1S(=O)(=O)N1CCCC1 [2-L17, N-{[2-(pyrrolidine-1-sulfonyl)phenyl]methyl}prop-2-enamide] | 68.6% |
| C=CC(=O)Nc1ccc(C(=O)N(C)C[C@@H]2CCC(=O)N2)cc1 [2-L18, N-methyl-N-{[(2S)-5-oxopyrrolidin-2-yl]methyl}-4-(prop-2-enamido)benzamide] | 98.8% |
| C=CC(=O)NCC1(n2ccnn2)CC1 [2-L19, N-{[1-(1H-1,2,3-triazol-1-yl)cyclopropyl]methyl}prop-2-enamide] | 45.7% |
| C=CC(=O)N1CCC(C(=O)N2CCCN(c3nccs3)CC2)CC1 [2-L20, 1-{4-[4-(1,3-thiazol-2-yl)-1,4-diazepane-1-carbonyl]piperidin-1-yl}prop-2-en-1-one] | 90.1% |
| C=CC(=O)N1CCCCC1C1CCCO1 (stereo not drawn) [2-L21, 1-[2-(oxolan-2-yl)piperidin-1-yl]prop-2-en-1-one] | 66.2% |
| C=CC(=O)N1CCCC(Oc2ccnc(C(=O)NC)c2)C1 (stereo not drawn) [2-L22, N-methyl-4-{[1-(prop-2-enoyl)piperidin-3-yl]oxy}pyridine-2-carboxamide] | 99.6% |
| C=CC(=O)NC1CCN(c2ccccc2S(=O)(=O)CC)CC1 [2-M03, N-{1-[2-(ethanesulfonyl)phenyl]piperidin-4-yl}prop-2-enamide] | 82.2% |
| C=CC(=O)N(C)CC(=O)N1CCCC1c1nc(C)no1 (stereo not drawn) [2-M04, N-methyl-N-{2-[2-(3-methyl-1,2,4-oxadiazol-5-yl)pyrrolidin-1-yl]-2-oxoethyl}prop-2-enamide] | 78.5% |
| C=CC(=O)N(Cc1ccc(OC)cc1)[C@@H]1CCCC[C@H]1O [2-M05, N-[(1R,2R)-2-hydroxycyclohexyl]-N-[(4-methoxyphenyl)methyl]prop-2-enamide] | 97.6% |
| C=CC(=O)NC(Cn1ccnc1)c1ccccc1 (stereo not drawn) [2-M06, N-[2-(1H-imidazol-1-yl)-1-phenylethyl]prop-2-enamide] | 84.5% |
| C=CC(=O)N1CCCCC1CNC(C)=O (stereo not drawn) [2-M07, N-{[1-(prop-2-enoyl)piperidin-2-yl]methyl}acetamide] | 186% |
| C=CC(=O)Nc1c(C)ccn2ncnc12 [2-M08, N-{7-methyl-[1,2,4]triazolo[1,5-a]pyridin-8-yl}prop-2-enamide] | 92% |

| Structure (SMILES) | viability at 48 h, 25 µM |
| --- | --- |
| C=CC(=O)NCCN1CCCCC1C (stereo not drawn) [2-M09, N-[2-(2-methylpiperidin-1-yl)ethyl]prop-2-enamide] | 182% |
| C=CC(=O)N1CCC(C(=O)Nc2nnc(CC)s2)CC1 [2-M10, N-(5-ethyl-1,3,4-thiadiazol-2-yl)-1-(prop-2-enoyl)piperidine-4-carboxamide] | 98.8% |
| C=CC(=O)NCc1cccc(N2C(=O)NC3(CCCC3)C2=O)c1 [2-M11, N-[(3-{2,4-dioxo-1,3-diazaspiro[4.4]nonan-3-yl}phenyl)methyl]prop-2-enamide] | 89.7% |
| C=CC(=O)NCCc1nc(-c2ccccc2)nn1C [2-M12, N-[2-(1-methyl-3-phenyl-1H-1,2,4-triazol-5-yl)ethyl]prop-2-enamide] | 87.7% |
| C=CC(=O)Nc1cnc2cc(C)nn2c1 [2-M13, N-{2-methylpyrazolo[1,5-a]pyrimidin-6-yl}prop-2-enamide] | 136% |
| C=CC(=O)NCCC(=O)Nc1nc2n(n1)CCCC2 [2-M14, N-[2-({5H,6H,7H,8H-[1,2,4]triazolo[1,5-a]pyridin-2-yl}carbamoyl)ethyl]prop-2-enamide] | 109% |
| C=CC(=O)N1CCOCC2(CC2)C1 [2-M15, 1-{5-oxa-8-azaspiro[2.6]nonan-8-yl}prop-2-en-1-one] | 180% |
| C=CC(=O)N1CCOCC1CC(=O)c1ccco1 (stereo not drawn) [2-M17, 1-{3-[2-(furan-2-yl)-2-oxoethyl]morpholin-4-yl}prop-2-en-1-one] | 194% |
| C=CC(=O)NCc1ccc(C(=O)N2CCC(c3nnc(C)o3)CC2)cc1 [2-M18, N-({4-[4-(5-methyl-1,3,4-oxadiazol-2-yl)piperidine-1-carbonyl]phenyl}methyl)prop-2-enamide] | 87.6% |
| C=CC(=O)N[C@@H](CN(C)C)c1ccccc1 [2-M19, N-[(1R)-2-(dimethylamino)-1-phenylethyl]prop-2-enamide] | 87.1% |
| C=CC(=O)NCc1nc(OC)cc(OC)n1 [2-M20, N-[(4,6-dimethoxypyrimidin-2-yl)methyl]prop-2-enamide] | 99.2% |
| C=CC(=O)Nc1ccc(C(=O)NC2CCN(S(C)(=O)=O)CC2)cc1 [2-M21, N-(1-methanesulfonylpiperidin-4-yl)-4-(prop-2-enamido)benzamide] | 90.2% |
| C=CC(=O)NCc1nnc(C2CCOCC2)[nH]1 [2-M22, N-{[5-(oxan-4-yl)-4H-1,2,4-triazol-3-yl]methyl}prop-2-enamide] | 93.3% |
| C=CC(=O)NCc1nc2ccccc2n1C1CC1 [2-N03, N-[(1-cyclopropyl-1H-1,3-benzodiazol-2-yl)methyl]prop-2-enamide] | 69.4% |
| C=CC(=O)N(C)CC(=O)N1CCC(c2nc3c(s2)CCCC3)CC1 [2-N04, N-methyl-N-{2-oxo-2-[4-(4,5,6,7-tetrahydro-1,3-benzothiazol-2-yl)piperidin-1-yl]ethyl}prop-2-enamide] | 92.5% |
| C=CC(=O)NCCCn1ccnc1C#N [2-N05, N-[3-(2-cyano-1H-imidazol-1-yl)propyl]prop-2-enamide] | 76.3% |
| C=CC(=O)N(CC)CC(=O)NC1CCN(C(C)=O)c2ccccc21 (stereo not drawn) [2-N06, N-{[(1-acetyl-1,2,3,4-tetrahydroquinolin-4-yl)carbamoyl]methyl}-N-ethylprop-2-enamide] | 99.7% |
| C=CC(=O)NC(c1nccs1)C(F)(F)F (stereo not drawn) [2-N07, N-[2,2,2-trifluoro-1-(1,3-thiazol-2-yl)ethyl]prop-2-enamide] | 84.1% |
| C=CC(=O)N(C)CC(=O)N1CCc2ccc(S(C)(=O)=O)cc2CC1 [2-N08, N-[2-(7-methanesulfonyl-2,3,4,5-tetrahydro-1H-3-benzazepin-3-yl)-2-oxoethyl]-N-methylprop-2-enamide] | 95.1% |
| C=CC(=O)NC(c1ccc(F)cc1)c1nccn1C (stereo not drawn) [2-N09, N-[(4-fluorophenyl)(1-methyl-1H-imidazol-2-yl)methyl]prop-2-enamide] | 45.3% |
| C=CC(=O)N(C)CC(=O)N1CCN(c2nsc3ccccc23)CC1 [2-N10, N-{2-[4-(1,2-benzothiazol-3-yl)piperazin-1-yl]-2-oxoethyl}-N-methylprop-2-enamide] | 1.45% |
| C=CC(=O)NCCn1nnc2ccccc21 [2-N11, N-[2-(1H-1,2,3-benzotriazol-1-yl)ethyl]prop-2-enamide] | 67.3% |
| C=CC(=O)N(CC)CC(=O)N1CCCC1c1cn(C)nc1C (stereo not drawn) [2-N12, N-{2-[2-(1,3-dimethyl-1H-pyrazol-4-yl)pyrrolidin-1-yl]-2-oxoethyl}-N-ethylprop-2-enamide] | 85.2% |
| C=CC(=O)NCCCc1conc1C [2-N13, N-[3-(3-methyl-1,2-oxazol-4-yl)propyl]prop-2-enamide] | 70.3% |
| C=CC(=O)N(C)CC(=O)NC1CCN(C(=O)c2ccc(C)cc2)CC1 [2-N14, N-methyl-N-({[1-(4-methylbenzoyl)piperidin-4-yl]carbamoyl}methyl)prop-2-enamide] | 66.3% |
